Values of other authors as cited in patent publication US20240317846A1 (priority 2021, published 2024).

What was measured:
COVID-19 [1] = settings: non-significant trend; cited from earlier work
COVID-19 [2] = settings: cited from earlier work

Substance: Mavrilimumab: monoclonal antibody that acts as a GM-CSF alpha-receptor antagonist
- Improvement in survival without requirement for supplemental oxygen (COVID-19 [1]): 48%

Substance: Otilimab: monoclonal antibody targeting circulating GM-CSF
- Subjects alive and free of respiratory failure at 28 days (COVID-19 [2]; pre-planned analysis, subjects aged at least 70 years, standard of care 45.9%): 65.1%
- Primary endpoint (proportion alive and free of respiratory failure 28 days) (COVID-19 [2]; whole population): not meet its primary endpoint
